From patent US20060014812A1, “Use of estrogen related receptor-modulating aryl ethers” (priority 2004, published 2006)

Columns and labels:
ERR-α = biological target: T1, ERR-α (Homo sapiens, UniProt P11474); experiment: 2-Hybrid cell based luciferase reporter assay (pBIND-Gal4-ERR-α / pACT-SRC2) in HEK293E cells; conditions: 24 hours compound treatment, firefly luciferase normalized to Renilla, average from three independent experiments
T1 construct: expressed in transfected cells; host or cells: HEK293E
T1 sequence (P11474 1-423): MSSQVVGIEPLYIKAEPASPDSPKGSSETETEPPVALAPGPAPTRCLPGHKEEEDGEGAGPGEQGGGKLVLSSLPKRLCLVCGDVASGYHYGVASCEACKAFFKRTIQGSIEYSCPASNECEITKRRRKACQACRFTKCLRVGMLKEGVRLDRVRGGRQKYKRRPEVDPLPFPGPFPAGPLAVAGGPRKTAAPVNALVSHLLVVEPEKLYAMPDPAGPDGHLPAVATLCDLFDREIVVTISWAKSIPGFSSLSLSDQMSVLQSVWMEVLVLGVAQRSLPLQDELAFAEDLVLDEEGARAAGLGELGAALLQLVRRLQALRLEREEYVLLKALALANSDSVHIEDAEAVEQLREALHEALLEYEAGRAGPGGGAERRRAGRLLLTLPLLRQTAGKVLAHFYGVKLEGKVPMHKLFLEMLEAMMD
Description: A cell based reporter assay was also used to determine the functional response of the ERR-α hits. Transfections were performed in HEK293E cells that were maintained in DMEM supplemented in glutamine and 10% FBS. Co-transfections of 4 μg of a luciferase reporter plasmid and 4 μg of each pBIND-Gal4-ERR-α and pACT-SRC2 plasmids per T-75 flask were done using Lipofectamine as per manufacturers instructions. Twenty-four hours post-transfection, the cells were seeded in 96-well plates at density of 50,000 cells per well in assay media (DMEM phenol free, 5% charcoal stripped FBS). The cells were allowed to adhere to the bottom of the wells (approximately 5 hours post-seeding) and the compounds were dosed and the final concentration of DMSO was kept below 0.3%. After 24 hours of compound treatment cells were lysed and treated with the Promega Dual-Glo system. Firefly Luciferase activity was read using a luminescence plate reader, and data were normalized against Renilla luciferase activity. Data were fitted using subroutines available from GraphPad. The reported IC50 values shown in the table below are the average from three independent experiments for the compounds tested.

[1] = biological target: T2, ligand binding domain of ERR-α (aa 183-424) (Homo sapiens, UniProt P11474); experiment: ThermoFluor thermal-shift binding affinity screen against ERR-α ligand binding domain; conditions: 100 μM test compound, 0.1 mg/mL ERR-α, pH 7.6, Kd estimated from melting temperature shift at reference temperature, read-out: TF Kd
T2 construct: His tag (N); thrombin cleavage site (N); made in house; host or cells: E. coli BL21(DE3+)
T2 sequence (P11474 183-423 limits assumed): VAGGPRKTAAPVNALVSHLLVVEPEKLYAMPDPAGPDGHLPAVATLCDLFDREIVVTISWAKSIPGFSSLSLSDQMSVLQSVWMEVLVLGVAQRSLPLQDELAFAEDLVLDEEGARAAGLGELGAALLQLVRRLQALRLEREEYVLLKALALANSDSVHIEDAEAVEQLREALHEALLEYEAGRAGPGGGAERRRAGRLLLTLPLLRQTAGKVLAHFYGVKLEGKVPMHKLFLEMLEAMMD
Description: The ligand binding domain of ERR-α (aa 183-424) was subcloned in frame with the N-terminal His tag and the cleavable thrombin site in pET28. The protein was expressed in BL21(DE3^+) following induction with 100 μM IPTG at 16° C. Cells were harvested after 16 hours (h) of induction and lysed in 20 mM Tris pH 7.5, 500 mM NaCl, 5 mM imidazole, 5% glycerol, protease inhibitor cocktail (-EDTA) and 2 mM β-ME. Insoluble material was removed by centrifugation at 40,000×g for 1 hr. Clarified homogenate was applied on a Ni-NTA column and after applying an imidazole gradient the protein was eluted. The protein was further purified on size exclusion chromatography to an apparent homogeneity of 95% as judged by SDS-PAGE chromatography.
Binding affinities of compounds were determined by screening against the ligand binding domain of ERR-α using ThermoFluor® technology (U.S. Pat. No. 6,020,141 and U.S. Pat. No. 6,036,920, and Journal of Biomolecular Screening 6 (6), […], pgs 429-440). Assay plates were prepared by dispensing 2 μL of a protein-dye solution and 2 μL of the test compound in a 384-well plate. The conditions used in the screen were: 0.1 mg/mL ERR-α, 25 mM Na-phosphate buffer at pH 7.6, 200 mM NaCl, 10% glycerol, 16 μM ANS, 2% DMSO and the final concentration of test compound was 100 μM. Finally 1 μL of mineral oil was dispensed on top to prevent evaporation during the high throughput screen (HTS). ThermoFluor® is an HTS assay that measures protein unfolding based on fluorescence detection of the denatured form of the protein. The reporter for the protein unfolding event is the environmentally sensitive dye ANS that is incorporated in the screening buffer. During a typical experiment the 384-well plate is heated at a ramping rate of 1° C./min and the thermal unfolding of the protein is monitored at 1° C. intervals by measuring fluorescence changes detected through a CCD camera. Captured images are integrated and a melting curve is generated that relates fluorescence to fraction of unfolded protein as a function of temperature. For the ERR-α screen, data were collected from 30 to 80° C. at 1° C. intervals and the protein melted under the screening conditions with a characteristic melting temperature, Tm, of 52.1° C. Hits were identified from the screen by measuring an increase in the melting temperature of the protein.
In order to estimate binding affinities, it was taken into account that the oligomeric state of ERR-α, which is a dimer (N2), and that of a single ligand (Lf) can interact per monomer subunit with equal affinity. The melting curve for such a system is described by the following three equilibria: [formula] The first equilibrium describes the denaturation of ERR-α dimers; the second equilibrium describes the dissociation of the first ligand from the single ligand occupied ERR-α dimers (N2L); and the third equilibrium describes the dissociation of the second ligand from the fully occupied ERR-α dimers (N2L2).
Following the derivations of Brandts and Lin (Biochemistry, 29, 6967, 1990) the dissociation constants for the ligands (Kd1^t^m) can be determined at T=Tm for any ligand concentration Lt by solving numerically the conservation of mass equations: [formula] and Ku is in the unfolding equilibrium constant for ERR-α dimers that is calculated from the melting curve of the protein in the absence of ligand as described by Pantoliano et al. (J. Biomolecular Screening, 6, 429, 2001) and Bowie & Sauer (Biochemistry, 28, 7139, 1989).
To compare dissociation constants at a common reference temperature, Tref, the following equation was used: [formula] where • Kd^ref=is the dissociation constant of the ligand at a reference temperature Tref • ΔHb^ref=is the binding enthalpy of the ligand to the protein at a reference temperature Tref. […]

Row | Structure (SMILES) | IC50 (ERR-α) [nM] | Kd [1] [nM]
1 | COc1cc(/C=C(\C#N)c2nn(-c3ccccc3)c(N)c2C#N)ccc1Oc1ccc(C(F)(F)F)cc1[N+](=O)[O-] [Example 1, 5-Amino-3-{1-cyano-2-[3-methoxy-4-(2-nitro-4-trifluoromethyl-phenoxy)-phenyl]vinyl}-1-phenyl-1H-pyrazole-4-carbonitrile] | 6070 | 6070
2 | N#C/C(=C\c1ccc(Oc2ccc(C(F)(F)F)cc2[N+](=O)[O-])cc1)c1nn(-c2ccccc2)c(N)c1C#N [Example 2, 5-Amino-3-{1-cyano-2-[4-(2-nitro-4-trifluoromethyl-phenoxy)-phenyl]-vinyl}-1-phenyl-1H-pyrazole-4-carbonitrile] | 7780 | 7780
3 | COc1cc(/C=C(\C#N)c2nn(-c3ccccc3)c(N)c2C#N)ccc1Oc1ccc([N+](=O)[O-])c(C(F)(F)F)c1 [Example 3, 5-Amino-3-{1-cyano-2-[3-methoxy-4-(4-nitro-3-trifluoromethyl-phenoxy)-phenyl]-vinyl}-1-phenyl-1H-pyrazole-4-carbonitrile] | 1710 | 1710
4 | COc1cc(/C=C(\C#N)c2nn(-c3ccccc3)c(N)c2C#N)ccc1Oc1ccc(C#N)c(C(F)(F)F)c1 [Example 4, 5-Amino-3-{1-cyano-2-[4-(4-cyano-3-trifluoromethyl-phenoxy)-3-methoxy-phenyl]-vinyl}-1-phenyl-1H-pyrazole-4-carbonitrile] | 1430 | 1430
5 | N#C/C(=C\c1ccc(Oc2ccccc2)cc1)c1nn(-c2ccccc2)c(N)c1C#N [Example 5, 5-Amino-3-[1-cyano-2-(4-phenoxy-phenyl)-vinyl]-1-phenyl-1H-pyrazole-4-carbonitrile] | 26000 | 26000
6 | COc1cc(/C=C2\SC(N)=NC2=O)ccc1Oc1ccc(C(F)(F)F)cc1[N+](=O)[O-] [Example 7, 2-Amino-5-[3-methoxy-4-(2-nitro-4-trifluoromethyl-phenoxy)-benzylidene]-thiazol-4-one] | 500 | 359
7 | COc1cc(/C=C2\SC(N)=NC2=O)ccc1Oc1ccc(C#N)c(C(F)(F)F)c1 [Example 8, 4-[4-(2-Amino-4-oxo-4H-thiazol-5-ylidenemethyl)-2-methoxy-phenoxy]-2-trifluoromethyl-benzonitrile] | 140 | 473
8 | COc1cc(/C=C2\SC(=O)NC2=O)ccc1Oc1ccc([N+](=O)[O-])c(C(F)(F)F)c1 [Example 11, 5-[3-Methoxy-4-(4-nitro-3-trifluoromethyl-phenoxy)-benzylidene]-thiazolidine-2,4-dione] | 1000 | 529
9 | COc1cc(/C=C2\SC(=O)NC2=O)ccc1Oc1ccc(C#N)c(C(F)(F)F)c1 [Example 12, 4-[4-(2,4-Dioxo-thiazolidin-5-ylidenemethyl)-2-methoxy-phenoxy]-2-trifluoromethyl-benzonitrile] | 50 | 463
10 | COC(=O)c1ccc(Oc2ccc(/C=C3\SC(=O)NC3=O)cc2OC)cc1C(F)(F)F [Example 15, 4-[4-(2,4-Dioxo-thiazolidin-5-ylidenemethyl)-2-methoxy-phenoxy]-2-trifluoromethyl-benzoic acid methyl ester] | 1500 | 114
